For series [1] the following is noted: cited from earlier work.
For series [2] the following is noted: cited from earlier work. The source holds these as a separate data set.
A short description of series [3]: Solubility of cocrystals and their constituents in organic solvents (shake-flask, HPLC). Particulars: for solubility at 48 h: organic solvent or mixture, thermodynamic from solid; for Cp∙10^2, solubility of pure component: 293.15 K, value is C∙10^2. As to the method: For the [CBZ + 3AcAmBA] (1:1) cocrystal, methanol was used. For [CBZ + 4AcAmBA] (1:1), all the experiments were performed in acetonitrile. An excess of the solid was placed in an Eppendorf tube, and 2 mL of solvent was added. The resulting suspension was shaken in a ThermoMixer C (Eppendorf, Hamburg, Germany) at 800 rpm for 48 h at the specified temperature. Subsequently, the saturated solution was separated using a 0.22 μm PTEF filter, diluted, and analyzed using HPLC. The solid phases after the experiment were collected and characterized by PXRD. Each experiment was repeated three times.
The HPLC was performed on an LC-20 AD Shimadzu Prominence model (Shimadzu, Kyoto, Japan) equipped with a PDA detector and a Luna C-18 column (150 mm × 4.6 mm i.d., 5 μm particle size, and 100 Å pore size). The column temperature was set to 40 °C. To achieve the proper separation of the cocrystal components, different ratios of the mobile phase, consisting of acetonitrile and a 0.1% aqueous solution of trifluoroacetic acid (35:65 v/v), were used. The flow rate was 1.0 mL·min^−1, and the injection volume was 20 μL. The UV detection of carbamazepine, 2-acetamidobenzoic acid, 3-acetamidobenzoic acid, and 4-acetamidobenzoic acid was carried out at the wavelengths of 285 nm, 249 nm, 220 nm, and 266 nm, respectively.

≈ marks a conversion by molar mass, not a printed value. Like-named read-outs stand apart in the source and are kept apart here.

The values below come from article PMC10052035, “Virtual Screening, Structural Analysis, and Formation Thermodynamics of Carbamazepine Cocrystals” (Pharmaceutics, 2023).

The solubility is how much of the substance goes into solution per volume.

Turning to `NC(=O)c1cnccn1.Nc1ccc(C(=O)O)cc1`, in series [1] (298 K, ref [14]), the TΔformS was -33.5 ± 3.2 kJ/mol, the ΔformG is -6.1 ± 0.3 kJ/mol and the ΔformH is -39.6 ± 2.9 kJ/mol.

Regarding `NC(=O)c1ccccc1N.O=C1CN(N=Cc2ccc([N+](=O)[O-])o2)C(=O)N1`, in series [1] (298 K, ref [19]), the TΔformS is 1.3 ± 1.1 kJ/mol, the ΔformG was -4.5 ± 0.5 kJ/mol and the ΔformH is -3.3 ± 0.8 kJ/mol. Further, the TΔformS entry in series [1] (298 K, ref [19], listed as 13) was “≈ 0 kJ·mol-1”.

For the compound `NC(=O)N1c2ccccc2C=Cc2ccccc21` [CBZ, carbamazepine], the “log(S0), intrinsic solubility” value in series [2] (2-propanol, ref [6]) is -1.36 mol⋅L-1; in series [2] (2-propanol, ref [10]), -1.3 mol⋅L-1; in series [2] (Acetone, ref [6]) it was -1.27 mol⋅L-1; in series [2] (Ethanol, ref [6]) it was -0.97 mol⋅L-1; in series [2] (Ethanol, ref [10]), -0.85 mol⋅L-1; in series [2] (Ethyl acetate, ref [6]), -1.32 mol⋅L-1. For the same compound, the “log(S0), intrinsic solubility” value was -1.31 mol⋅L-1 in series [2] (Ethyl acetate, ref [10]) and -0.49 mol⋅L-1 in series [2] (Methanol, ref [6]). In addition, the solubility at 48 h in series [3] (acetonitrile, 20 °C) was 142 ± 3 mM (≈ 33.6 mg/mL); in series [3] (acetonitrile, 25 °C) it was 162 ± 4 mM (≈ 38.3 mg/mL); in series [3] (acetonitrile, 30 °C) it was 191 ± 4 mM (≈ 45.1 mg/mL); in series [3] (acetonitrile, 35 °C), 222 ± 3 mM (≈ 52.5 mg/mL); in series [3] (acetonitrile, 40 °C) it was 250 ± 4 mM (≈ 59.1 mg/mL); in series [3] (methanol, 20 °C), 220 ± 2 mM (≈ 52 mg/mL). Further, the solubility at 48 h was found to be 248 ± 2 mM (≈ 58.6 mg/mL) in series [3] (methanol, 25 °C); 285 ± 2 mM (≈ 67.3 mg/mL) in series [3] (methanol, 30 °C); 323 ± 3 mM (≈ 76.3 mg/mL) in series [3] (methanol, 35 °C); 356 ± 1 mM (≈ 84.1 mg/mL) in series [3] (methanol, 40 °C). Further, the “Cp∙10^2, solubility of pure component” value stood at 14.2±0.3 mol/l in series [3] (acetonitrile) and 22.0±0.2 mol/l in series [3] (methanol).

On to `Cc1cc(O)c2c(c1)C(=O)c1cc(O)cc(O)c1C2=O` [Emodin], for which the “log(S0), intrinsic solubility” value is given as -1.68 mol⋅L-1 in series [2] (2-propanol, ref [6]); -1.29 mol⋅L-1 in series [2] (Acetone, ref [6]); -1.74 mol⋅L-1 in series [2] (Ethanol, ref [6]); -1.43 mol⋅L-1 in series [2] (Ethyl acetate, ref [6]).

In the case of `O=C(O)CCCC(=O)O` [Glutaric acid], the “log(S0), intrinsic solubility” value was 0.56 mol⋅L-1 in series [2] (2-propanol, ref [10]); 0.45 mol⋅L-1 in series [2] (Ethanol, ref [10]); 0 mol⋅L-1 in series [2] (Ethyl acetate, ref [10]).

As to `NC(=O)c1cccnc1` [Nicotinamide], the “log(S0), intrinsic solubility” value in series [2] (2-propanol, ref [10]) was -0.2 mol⋅L-1; in series [2] (Ethanol, ref [10]) it was 0.04 mol⋅L-1; in series [2] (Ethyl acetate, ref [10]), -0.96 mol⋅L-1.

In the case of `COc1ccc(C(C)=O)c(O)c1` [Paeonol], the “log(S0), intrinsic solubility” value in series [2] (2-propanol, ref [6]) was -0.12 mol⋅L-1; in series [2] (Ethanol, ref [6]) it was 0.08 mol⋅L-1; in series [2] (Methanol, ref [6]), 0.22 mol⋅L-1.

As to `CC(O)(CS(=O)(=O)c1ccc(F)cc1)C(=O)Nc1ccc(C#N)c(C(F)(F)F)c1.NC(=O)c1ccccc1` (stereo not shown) [[Bicalutamide + Benzamide] (1:1)], in series [1] (298 K, ref [11]), the TΔformS is -16.2 ± 1.1 kJ/mol, the ΔformG was -3.4 ± 0.3 kJ/mol and the ΔformH is -19.6 ± 0.8 kJ/mol.

As for `CC(O)(CS(=O)(=O)c1ccc(F)cc1)C(=O)Nc1ccc(C#N)c(C(F)(F)F)c1.NC(=O)c1ccccc1O` (stereo not shown) [[Bicalutamide + Salicylamide] (1:1)], in series [1] (298 K, ref [11]), the TΔformS was -9.2 ± 0.8 kJ/mol, the ΔformG is -2.2 ± 0.3 kJ/mol and the ΔformH is -11.4 ± 0.5 kJ/mol.

Regarding `NC(=O)N1c2ccccc2C=Cc2ccccc21.NC(=O)c1ccc(O)cc1` [[CBZ + 4-Hydroxybenzamide] (1:1)], in series [1] (298 K, ref [22]), the TΔformS is -5.7 ± 0.5 kJ/mol, the ΔformG is -6.7 ± 0.5 kJ/mol and the ΔformH was -12.4 ± 0.9 kJ/mol.

Take `NC(=O)N1c2ccccc2C=Cc2ccccc21.NC(=O)c1ccccc1` [[CBZ + Benzamide] (1:1)]: in series [1] (298 K, ref [22]), the TΔformS is 30.5 ± 2.9 kJ/mol, the ΔformG is -4.8 ± 0.3 kJ/mol and the ΔformH was 25.7 ± 1.9 kJ/mol.

Regarding `NC(=O)N1c2ccccc2C=Cc2ccccc21.O=C1NS(=O)(=O)c2ccccc21` [[CBZ + Saccharin] (1:1)], in series [1] (306 K, ref [15]), the TΔformS was -1.3 kJ/mol, the ΔformG is -4.6 kJ/mol and the ΔformH is -5.9 ± 0.9 kJ/mol.

As to `NC(=O)N1c2ccccc2C=Cc2ccccc21.NC(=O)c1ccncc1` [[CBZ + isonicotinamide] (1:1)], in series [1] (298 K, ref [22]), the TΔformS was 22.0 ± 2.5 kJ/mol, the ΔformG was -2.1 ± 0.1 kJ/mol and the ΔformH was 19.9 ± 1.9 kJ/mol.

Consider `Cc1ccc(-c2cc(C(F)(F)F)nn2-c2ccc(S(N)(=O)=O)cc2)cc1.NC(=O)c1cccnc1` [[Celecoxib + Nicotinamide] (1:1)], for which, in series [1] (298 K, ref [20]), the TΔformS is 6.9 ± 2.0 kJ/mol, the ΔformG was -0.35 ± 0.05 kJ/mol and the ΔformH is 6.5 ± 1.5 kJ/mol.

With `NCC(=O)O.NCC(=O)O.O=C(O)/C=C/C(=O)O` [[Glycine + Fu maric acid] (2:1)], in series [1] (298 K, ref [17]), the TΔformS is -1.4 ± 0.6 kJ/mol, the ΔformG is -4.4 ± 0.3 kJ/mol and the ΔformH was -5.8 ± 0.5 kJ/mol.

With `NCC(=O)O.O=C(O)/C=C\C(=O)O` [[Glycine + Maleic acid] (1:1)], in series [1] (298 K, ref [17]), the TΔformS was -5.7 ± 1.0 kJ/mol, the ΔformG was -5.4 ± 0.4 kJ/mol and the ΔformH is -11.1 ± 0.9 kJ/mol.

In the case of `NC(=O)c1ccncc1.O=C1CN(N=Cc2ccc([N+](=O)[O-])o2)C(=O)N1` [[Nitrofurantoin + Isonicotinamide] (1:1)], in series [1] (298 K, ref [19]), the TΔformS is 6.0 ± 0.7 kJ/mol, the ΔformG was -4.7 ± 0.4 kJ/mol and the ΔformH was 1.3 ± 0.6 kJ/mol.

In the case of `NC(=O)c1ccccn1.O=C1CN(N=Cc2ccc([N+](=O)[O-])o2)C(=O)N1` [[Nitrofurantoin + Picolinamide] (1:1)], in series [1] (298 K, ref [19]), the TΔformS is 0.6 ± 0.8 kJ/mol, the ΔformG was -4.9 ± 0.5 kJ/mol and the ΔformH was -4.4 ± 0.7 kJ/mol. The TΔformS entry in series [1] (298 K, ref [19], listed as 12) is given as “≈ 0 kJ·mol-1”.

Regarding `NC(=O)c1ccccc1O.O=C1CN(N=Cc2ccc([N+](=O)[O-])o2)C(=O)N1` [[Nitrofurantoin + Salicylamide] (1:1)], in series [1] (298 K, ref [19]), the TΔformS is 0.3 ± 0.7 kJ/mol, the ΔformG was -0.6 ± 0.4 kJ/mol and the ΔformH is -0.3 ± 0.6 kJ/mol. The TΔformS result in series [1] (298 K, ref [19], listed as 14) is “≈ 0 kJ·mol-1”.

In the case of `O=C(NN=Cc1ccccc1O)c1ccncc1.O=C1NS(=O)(=O)c2ccccc21` [[Salinazid + Saccharin] (1:1)], in series [1] (298 K, ref [13]), the TΔformS was -11.1 ± 1.6 kJ/mol, the ΔformG is -7.3 ± 0.6 kJ/mol and the ΔformH was -18.4 ± 1.0 kJ/mol.

Turning to `CNC(=O)c1cc(Oc2ccc(NC(=O)Nc3ccc(Cl)c(C(F)(F)F)c3)cc2)ccn1.O=c1[nH]cc(F)c(=O)[nH]1` [[Sorafenib + 5-fluorouracil] (1:1)], in series [1] (303 K, ref [18]), the TΔformS is 0.02 ± 0.1 kJ/mol, the ΔformG was -4.78 ± 0.09 kJ/mol and the ΔformH is -4.76 ± 0.07 kJ/mol. Moreover, the TΔformS result in series [1] (303 K, ref [18], listed as 11) is reported as “≈ 0 kJ·mol-1”.

On to `Cc1cc(C)nc(NS(=O)(=O)c2ccc(N)cc2)n1.O=C(O)c1ccccc1O` [[Sulfamethazine + salicylic acid] (1:1)], for which, in series [1] (293 K, ref [21]), the TΔformS is 29.7 kJ/mol, the ΔformG was -7.1 kJ/mol and the ΔformH is 23.1 kJ/mol.

For the compound `COc1cc(C=NNC(=O)c2ccncc2)ccc1O.O=C1NS(=O)(=O)c2ccccc21` [[Vanillin isoniazid + Saccharin] (1:1)], in series [1] (298 K, ref [13]), the TΔformS is -4.4 ± 1.9 kJ/mol, the ΔformG is -9.1 ± 0.8 kJ/mol and the ΔformH is -13.5 ± 1.1 kJ/mol.

As to `CC(O)Cc1nsc(Nc2cccc(Cl)c2)n1.COc1cc(C(=O)O)ccc1O` (stereo not shown) [[XIa+Vanillic acid] (1:1)], in series [1] (298 K, ref [12]), the TΔformS was -5.2 ± 1.3 kJ/mol, the ΔformG was -5.3 ± 0.4 kJ/mol and the ΔformH was -10.5 ± 0.9 kJ/mol.
